The subject of data set [1] is Staphylococcus aureus (ATCC 29213). Description: MIC, broth microdilution. Particulars: Staphylococcus aureus. In general terms: In broth dilution the organism is exposed to a series of concentrations in liquid medium.
For data set [2], the system named is 143 clinical isolates of various species of Enterobacteriacea. The data set is described as follows: MIC against clinical isolates of Enterobacteriacea. The data set is classed as cell-based. The settings on record: for MIC50: MIC of 50% population; for MIC50 / MIC90: 143 clinical isolates of Enterobacteriacea; for MIC90: MIC of 90% population; for share of strains of Enterobacteriacae in which the compound was more potent than the other (44 vs. 45): by ratio of MICs. The method, then:
(§1) To compare microbiological activity of the test compounds, minimum inhibitory concentrations (MIC.s) were determined. Antibiotic MICs were obtained using the broth microdilution method according to Clinical and Laboratory Standards Institute (CLSI) approved guidelines (Methods for dilution antimicrobial susceptibility tests for bacteria that grow aerobically; approved standard—7th ed. CLSI document M7-A7. Clinical and Laboratory Standards Institute, Wayne, Pa., incorporated herein by reference in its entirety). Antibiotics were dissolved as specified by CLSI (Performance standards for antimicrobial susceptibility testing; Seventeenth informational supplement. CLSI document M100-S17. Clinical and Laboratory Standards Institute, Wayne, Pa., incorporated herein by reference in its entirety), and were serially diluted 2-fold in cation adjusted Mueller Hinton Broth (CaMHB) at 2× concentration. Bacterial inoculums were prepared in CaMHB by suspension of a colony from an agar plate that was prepared the previous day to obtain a final concentration of 5×10^5CFU/ml. The plates were incubated for 18 hours at 35° C. […] MIC.s were determined by reading the turbidity of plate wells using a SpectraMax Plus384 plate reader (Molecular Devices, Sunnyvale, Calif., USA) at 600 nm and were confirmed by visual inspection.
Table 9 summarizes results of testing 44 and 45 against 143 clinical isolates of various species of Enterobacteriacea.

Data set [3] concerns Enterobacter aerogenes EAM1000 ATCC 13048. Description: MIC, representative strains. Format: cell-based. Particulars: Klebsiella aerogenes, ATCC13048, read-out: MIC Enterobacter aerogenes EAM1000 ATCC 13048. The protocol:
as §1

The subject of data set [4] is Acinetobacter baumannii ACM1008 aac(3)-Ia. The data set is described as follows: MIC, strains expressing aminoglycoside modifying enzymes. The data set is classed as cell-based. The settings on record: read-out: MIC Acinetobacter baumannii ACM1008 aac(3)-Ia. The method, then:
as §1

Data set [5] has as its system Providencia stuartii PSM1000 aac(2′). Described as above. The settings on record: read-out: MIC Providencia stuartii PSM1000 aac(2′). The data set is classed as cell-based. The method, then: as §1
Data set [6] concerns Pseudomonas aeruginosa pa1061 aac(6′) (no efflux). The data set is described as above. Format: cell-based. The settings on record: read-out: MIC Pseudomonas aeruginosa pa1061 aac(6′) (no efflux). The protocol:
as §1

In data set [7] the test system is Escherichia coli ECM6004 aac(2′). Described as above. Format: cell-based. The settings on record: read-out: MIC Escherichia coli ECM6004 aac(2′). The method, then: as §1
Data set [8] relates to Escherichia coli ECM6008 aac(3)-I, ant(3″). Described as above. Format: cell-based. Particulars: read-out: MIC Escherichia coli ECM6008 aac(3)-I, ant(3″). The protocol: as §1
Data set [9] relates to Escherichia coli EC1003 aac(3)I. Described as above. Format: cell-based. The settings on record: read-out: MIC Escherichia coli EC1003 aac(3)I. The protocol:
as §1

Data set [10] concerns Escherichia coli ECM6005 aac(3)-II, aph(3′)-II. The description is as above. The data set is classed as cell-based. Particulars: read-out: MIC Escherichia coli ECM6005 aac(3)-II, aph(3′)-II. The method, then: as §1
Data set [11] deals with Acinetobacter spp. AB1051 aph(3′)VI. Described as above. The settings on record: read-out: MIC Acinetobacter spp. AB1051 aph(3′)VI. Format: cell-based. The method, then: as §1
The test system of data set [12] is Escherichia coli ECM6012 armA. The description is as above. Format: cell-based. The settings on record: ECM6012ARMA, read-out: MIC Escherichia coli ECM6012 armA. The method, then: as §1
Data set [13] relates to Pseudomonas aeruginosa pa1060 ant(2″). Described as above. Format: cell-based. Particulars: read-out: MIC Pseudomonas aeruginosa pa1060 ant(2″). The method, then: as §1
Data set [14] concerns Pseudomonas aeruginosa pa1062 aac(3)-I. The description is as above. The settings on record: read-out: MIC Pseudomonas aeruginosa pa1062 aac(3)-I. Format: cell-based. The method, then:
as §1

The test system of another data set is mice. The data set is described as follows: Acute toxicity in mice (minimal lethal dose). Particulars: IV tail vein, observed 24 hours, lowest dose lethal for at least one mouse. The data set is classed as in vivo. The method, then: The acute toxicity of 44 was compared to that of 45 in mice. Ascending doses of each compound were administered to mice (n=3) IV through the tail vein. […] Acute toxicity was reported as the minimal lethal dose, or MLD, defined as the lowest dose of a compound that is lethal for at least one mouse.

Another data set relates to ACM1006 acc(6′)-Ib. The data set is described as follows: microbe, parasite or virus in culture. Format: cell-based, Acinetobacter baumannii. Particulars: Acinetobacter baumannii. The essentials: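 CLSI broth microdilution in CaMHB; 2-fold serial dilutions; 5×10^5 CFU/ml final inoculum; 18 h, 35° C; OD600 turbidity plus visual check.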
Data set [15] in a line: Aminoglycoside cytotoxicity in HK-2 cells (Alamar Blue). Format: cell-based, Human. The settings on record: human. The method, then:
(§2) Human kidney cortex proximal tubule cells (HK-2) were purchased from ATCC and maintained according to manufacturer's recommendations in Keratinocyte Serum-Free Media (SFM; Invitrogen), with 0.05 mg/ml bovine pituitary extract and 5 ng/ml of Epidermal growth factor.
(§3) Solutions of aminoglycosides at a concentration of 50 mg/mL (both control and novel test compounds) were prepared in sterile deionized water. Before treatment of cells, the concentrated drug solutions were diluted to the appropriate concentration in Keratinocyte SFM {20, 10, 5, 2.5, 1.25, 0.6, 0.3, and 0 mM}. Pentamidine was used as a positive control.
(§4) HK-2 cells were seeded at 2.5*10^4 cells/well density in 96-well plates in Keratinocyte SFM and placed in a 37° C. tissue culture CO2 incubator. […]. Each treatment was performed in duplicate. […] Drug solutions were aspirated and replaced with 0.1 ml of 5% Alamar Blue (Abd Serotec) cell proliferation reagent in Keratinocyte SFM. Plates were read on a Molecular Devices Gemini EM fluorometer pre-warmed at 37° C. at […]. Plates were read at 0 and 4 hrs, and were incubated at 37° C. in a CO2 incubator in between reads. The fluorescence signal at the 0 h timepoint was subtracted from that at 4 h to account for background fluorescence.
(§5) The cytotoxicity data were reported as the amount of drug producing a 50% decrease in Alamar Blue signal relative to the no drug treatment control.
For orientation: Alamar Blue is a resazurin reagent that responds to reducing activity.

Data set [16] has as its system Human kidney cortex proximal tubule cells (HK-2). The description is as above. The data set is classed as cell-based. The protocol:
as §2, §3, §4, §5

The mark [17] stands for this setting: ATCC29213, read-out: Compound MIC on Bacterial Strains: S. aureus ATCC 29213, QC strain, Table 2.
Setting [18] is: ATCC29213, read-out: Compound MIC on Bacterial Strains: Staphylococcus aureus SAM1000 ATCC 29213, Table 5.
The mark [19] stands for this setting: ATCC29213, read-out: MIC Staphylococcus aureus SAM1000 ATCC 29213, Table 7.
Where [20] appears, read: Table 4, read-out: Compound MIC on Bacterial Strains: Acinetobacter baumannii ACM1006 acc(6′)-Ib.
[21] abbreviates: Table 8, read-out: MIC Acinetobacter baumannii ACM1006 aac(6′)-Ib.

In brackets after ≈: the same amount, converted by molar mass. Read-outs that look alike come from different tables or passages of the source.

Regarding `CN[C@@H]1[C@@H](O)[C@@H](O[C@@H]2[C@@H](O)[C@H](O[C@H]3O[C@H](CNC[C@H](O)CO)CC[C@H]3N)[C@@H](N)C[C@H]2NC(=O)[C@@H](O)CN)OC[C@]1(C)O` [Compound 45, (S)-3-amino-N-((1R,2S,3S,4R,5S)-5-amino-4-((2R,3R,6S)-3-amino-6-(((S)-2,3-dihydroxypropylamino)methyl)tetrahydro-2H-pyran-2-yloxy)-2-((2R,3R,4R,5R)-3,5-dihydroxy-5-methyl-4-(methylamino)tetrahydro-2H-pyran-2-yloxy)-3-hydroxycyclohexyl)-2-hydroxypropanamide], the MIC in data set [1] (setting [17]) is 1 to 8 µg/mL (≈ 1.64 to 13.1 µM); in [1] (setting [18]), 1 to 8 µg/mL (≈ 1.64 to 13.1 µM); in data set [1] (setting [19]) it was 1 to 8 µg/mL (≈ 1.64 to 13.1 µM); in [3], 1 to 8 µg/mL (≈ 1.64 to 13.1 µM); in data set [4], 1 to 8 µg/mL (≈ 1.64 to 13.1 µM); in data set [5], above 8 µg/mL. In addition, the MIC in data set [6] was below 1 µg/mL; in data set [7], below 1 µg/mL; in data set [8] it was 1 to 8 µg/mL (≈ 1.64 to 13.1 µM); in data set [9], below 1 µg/mL; in data set [10] it was below 1 µg/mL; in data set [11] it was 1 to 8 µg/mL (≈ 1.64 to 13.1 µM). For the same compound, the MIC in data set [12] is above 8 µg/mL; in data set [13], 1 to 8 µg/mL (≈ 1.64 to 13.1 µM); in data set [14] it was above 8 µg/mL; in the data set with ACM1006 acc(6′)-Ib (setting [20]), 1 to 8 µg/mL (≈ 1.64 to 13.1 µM); with ACM1006 acc(6′)-Ib (setting [21]), 1 to 8 µg/mL (≈ 1.64 to 13.1 µM). In data set [2], the MIC50 amounted to 1 µg/mL. Besides, the MIC90 in data set [2] stood at 2 µg/mL. For the same compound, the “share of strains of Enterobacteriacae in which the compound was more potent than the other (44 vs. 45)” value in [2] is recorded as “less than 2%”. For the same compound, the “minimal lethal dose (MLD)” value in the data set on mice came out at 100 mg/kg. In addition, it took 10 mM to reach half-maximal inhibition in [15] (IC50 at 24 h). For the same compound, the “fold more cytotoxic than compound 44” value in [16] (human, 48 h) is given as “at least 2 fold”.

As for `CN[C@@H]1C(O)[C@@H](OC2C(O)C(O[C@H]3O[C@H](CNC[C@@H](O)CO)CCC3N)[C@@H](N)C[C@H]2NC(=O)[C@@H](O)CN)OCC1(C)O` (stereo partly shown) [Compound 44], the MIC in [1] (setting [17]) was below 1 µg/mL; in data set [1] (setting [18]) it was below 1 µg/mL; in [1] (setting [19]), below 1 µg/mL; in [3], below 1 µg/mL; in data set [4] it was 1 to 8 µg/mL (≈ 1.64 to 13.1 µM); in data set [5], above 8 µg/mL. Moreover, the MIC in data set [6] was below 1 µg/mL; in data set [7], below 1 µg/mL; in [8] it was below 1 µg/mL; in [9], below 1 µg/mL; in [10], below 1 µg/mL; in [11] it was 1 to 8 µg/mL (≈ 1.64 to 13.1 µM). Besides, the MIC in [12] is above 8 µg/mL; in [13], below 1 µg/mL; in data set [14], above 8 µg/mL; with ACM1006 acc(6′)-Ib (setting [20]), 1 to 8 µg/mL (≈ 1.64 to 13.1 µM); in the data set on ACM1006 acc(6′)-Ib (setting [21]), 1 to 8 µg/mL (≈ 1.64 to 13.1 µM). The MIC50 in [2] is 0.5 µg/mL. For the same compound, the MIC90 in data set [2] was 2 µg/mL. The “share of strains of Enterobacteriacae in which the compound was more potent than the other (44 vs. 45)” value in [2] is around 75%. In addition, the “minimal lethal dose (MLD)” value in the data set with mice is reported as above 125 mg/kg. For the same compound, the IC50 at 24 h in data set [15] is above 20 mM. In [16], the “cytotoxicity in HK-2 cells (in words)” value was “essentially non-cytotoxic”.

As usually defined, the MIC50 is the lowest concentration that inhibits either 50% of growth or 50% of the strains tested, depending on the study. As a reminder, the MIC90 is an inhibitory concentration at the 90% level, which refers to growth in some studies and to a panel of isolates in others. For orientation: IC50 means the concentration needed to halve the response being measured.

These data come from patent US8906868B2, “Aminoglycoside derivatives” (Rempex Pharmaceuticals, Inc., priority 2010, dated 2014).
